# Data taken from ChEMBL document CHEMBL1201862, “PubChem BioAssay data set” (2004).
# The source made the active and inactive calls. For most assays here, no stated cut-off is given here; in the data, actives have a measured IC50 and inactives only a lower limit.
# Columns and labels:
# [1] = biological target: T1, Peroxisome proliferator-activated receptor gamma (Homo sapiens, UniProt P37231); assay: competitive ligand displacement at PPARg – biochemical, TR-FRET, LanthaScreen, PPARg partial agonist project, dose response (AID 504446)
# T1 sequence (P37231 whole entry): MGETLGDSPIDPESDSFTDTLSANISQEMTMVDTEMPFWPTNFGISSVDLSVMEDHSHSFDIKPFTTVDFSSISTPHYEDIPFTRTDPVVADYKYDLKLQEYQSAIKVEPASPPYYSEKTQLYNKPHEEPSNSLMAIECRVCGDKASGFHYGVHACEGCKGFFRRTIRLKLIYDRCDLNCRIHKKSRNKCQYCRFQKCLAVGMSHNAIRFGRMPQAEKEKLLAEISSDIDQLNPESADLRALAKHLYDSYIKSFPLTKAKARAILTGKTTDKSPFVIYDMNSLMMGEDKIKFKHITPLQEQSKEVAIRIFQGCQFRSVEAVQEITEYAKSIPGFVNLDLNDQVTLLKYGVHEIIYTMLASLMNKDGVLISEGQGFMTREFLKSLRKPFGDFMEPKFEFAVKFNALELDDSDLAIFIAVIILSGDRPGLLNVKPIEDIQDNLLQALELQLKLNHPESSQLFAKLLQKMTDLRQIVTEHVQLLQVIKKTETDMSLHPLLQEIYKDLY
# [2] = biological target: T1, Peroxisome proliferator-activated receptor gamma; assay: competitive ligand displacement at PPARg – biochemical, fluorescence polarization, PolarScreen, PPARg partial agonist project, dose response (AID 504453)
# [3] = biological target: T1, Peroxisome proliferator-activated receptor gamma; assay: PPARg transcriptional activation, reporter cells – cell-based, luminescence, assay provider, dose response (AID 504447); type: functional
# Bcl-2-related protein A1 = biological target: T2, Bcl-2-related protein A1 (Mus musculus, UniProt Q07440); type: functional;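 further: confirmatory dose–response counterscreen on Bfl-1, used to check hits from a UBC13 polyubiquitin inhibitor campaign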
# T2 sequence (Q07440 whole entry): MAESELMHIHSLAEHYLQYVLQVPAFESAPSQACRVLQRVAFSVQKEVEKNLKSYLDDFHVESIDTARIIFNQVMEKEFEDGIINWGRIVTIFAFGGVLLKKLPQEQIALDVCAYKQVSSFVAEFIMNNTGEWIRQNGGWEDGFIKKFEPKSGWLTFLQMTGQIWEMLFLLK
# [4] = biological target: T3, Ubiquitin-conjugating enzyme E2 N (Homo sapiens, UniProt P61088); type: functional
# T3 sequence (P61088 whole entry): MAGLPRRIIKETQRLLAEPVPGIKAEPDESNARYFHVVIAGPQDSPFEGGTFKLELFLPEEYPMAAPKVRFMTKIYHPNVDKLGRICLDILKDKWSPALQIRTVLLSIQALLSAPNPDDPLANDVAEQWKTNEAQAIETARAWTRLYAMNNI
# [5] = biological target: T3, Ubiquitin-conjugating enzyme E2 N; type: functional; remark: listed apart in the source
# [6] = biological target: E3 ubiquitin-protein ligase XIAP (Homo sapiens, UniProt P98170); assay: Counter Screen using XIAP-Bir3 for Chemical Antagonists of Bir1/2 domains of IAP-family anti-apoptotic proteins. [Related pubchem assays (depositor defined):AID1018, AID1449, AID1514, AID1638, AID1749, AID1750, AID488957, AID488963]
# E3 ubiquitin-protein ligase XIAP, sequence (P98170 whole entry): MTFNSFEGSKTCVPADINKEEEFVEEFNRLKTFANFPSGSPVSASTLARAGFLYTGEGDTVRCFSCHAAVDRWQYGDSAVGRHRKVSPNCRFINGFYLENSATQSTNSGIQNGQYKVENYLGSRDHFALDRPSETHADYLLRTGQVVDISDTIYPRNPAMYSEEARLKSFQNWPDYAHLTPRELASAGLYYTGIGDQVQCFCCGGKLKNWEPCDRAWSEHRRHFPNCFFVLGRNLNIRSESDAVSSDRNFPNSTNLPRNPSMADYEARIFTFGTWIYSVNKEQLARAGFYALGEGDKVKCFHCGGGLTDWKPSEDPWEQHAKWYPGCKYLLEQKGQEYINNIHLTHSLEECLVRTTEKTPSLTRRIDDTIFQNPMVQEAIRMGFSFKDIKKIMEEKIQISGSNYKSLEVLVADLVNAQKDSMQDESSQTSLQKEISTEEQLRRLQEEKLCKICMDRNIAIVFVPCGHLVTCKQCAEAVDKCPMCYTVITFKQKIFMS
# Genome polyprotein = Genome polyprotein (Hepatitis C virus, UniProt Q2Q167); assay: disruption of hepatitis C core self-association – biochemical, TR-FRET, dose response (AID 2159); design: species or system Hepacivirus hominis;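 further: blocks dimerization of HCV core protein measured by TR-FRET between tagged core106 pairs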
# SUMO-activating enzyme [7] = biological target: T4, SUMO-activating enzyme (Homo sapiens, UniProt Q9UBT2); assay: blockers of UBC9-mediated SUMO conjugation – biochemical, AlphaScreen, SUMOylation inhibitor project, confirmation (AID 2018); type: functional
# T4 sequence (Q9UBE0 whole entry): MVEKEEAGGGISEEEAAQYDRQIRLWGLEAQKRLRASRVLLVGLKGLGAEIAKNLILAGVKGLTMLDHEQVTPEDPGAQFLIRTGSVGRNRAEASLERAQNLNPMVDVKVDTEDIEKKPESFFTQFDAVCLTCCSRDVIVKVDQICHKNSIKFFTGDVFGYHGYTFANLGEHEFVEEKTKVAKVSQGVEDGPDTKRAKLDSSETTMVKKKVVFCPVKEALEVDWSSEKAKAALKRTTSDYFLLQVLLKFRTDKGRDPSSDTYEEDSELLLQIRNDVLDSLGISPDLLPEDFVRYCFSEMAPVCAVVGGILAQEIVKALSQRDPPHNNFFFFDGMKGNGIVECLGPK
# T4 sequence (Q9UBT2 whole entry): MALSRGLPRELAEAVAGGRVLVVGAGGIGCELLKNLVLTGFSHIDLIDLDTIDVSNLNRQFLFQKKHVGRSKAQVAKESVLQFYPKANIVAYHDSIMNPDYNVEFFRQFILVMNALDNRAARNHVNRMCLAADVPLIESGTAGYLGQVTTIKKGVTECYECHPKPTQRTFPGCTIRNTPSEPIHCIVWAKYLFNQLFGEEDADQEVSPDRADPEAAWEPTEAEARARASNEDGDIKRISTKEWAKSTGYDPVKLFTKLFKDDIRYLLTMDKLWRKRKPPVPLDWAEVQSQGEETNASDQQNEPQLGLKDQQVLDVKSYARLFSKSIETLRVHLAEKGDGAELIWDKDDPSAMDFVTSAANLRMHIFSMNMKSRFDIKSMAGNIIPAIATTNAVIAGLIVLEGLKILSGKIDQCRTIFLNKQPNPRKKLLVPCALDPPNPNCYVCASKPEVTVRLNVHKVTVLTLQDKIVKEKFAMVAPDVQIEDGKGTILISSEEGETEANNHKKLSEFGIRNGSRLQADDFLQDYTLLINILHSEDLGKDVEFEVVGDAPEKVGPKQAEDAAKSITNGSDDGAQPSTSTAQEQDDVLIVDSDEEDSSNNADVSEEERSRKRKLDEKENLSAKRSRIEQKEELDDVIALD
# SUMO-activating enzyme [8] = biological target: T4, SUMO-activating enzyme; assay: blockers of SAE1/SAE2–UBC9 SUMO transfer – biochemical, HTRF, uHTS, primary screen (AID 2006); type: protein-complex assay
# [9] = biological target: T5, Carboxy-terminal domain RNA polymerase II polypeptide A small phosphatase 1 (Homo sapiens, UniProt Q9GZU7); assay: CTDSP1 inhibitors, concentration-response, biochemical, absorbance readout, ultra-high-throughput screen actives (AID 540297); type: functional
# T5 sequence (Q9GZU7 whole entry): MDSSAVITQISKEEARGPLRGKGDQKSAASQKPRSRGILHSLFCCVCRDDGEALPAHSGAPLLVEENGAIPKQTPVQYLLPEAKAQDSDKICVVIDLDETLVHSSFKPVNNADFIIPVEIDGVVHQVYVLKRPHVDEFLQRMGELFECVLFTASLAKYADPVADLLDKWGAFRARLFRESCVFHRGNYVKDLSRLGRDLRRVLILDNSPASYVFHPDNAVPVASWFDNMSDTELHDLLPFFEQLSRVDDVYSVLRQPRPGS
# [10] = biological target: DNA (cytosine-5)-methyltransferase 1 (Homo sapiens, UniProt P26358); assay: inhibition of DNA methylation by DNMT1 – biochemical, fluorescent molecular beacon, confirmation (AID 602386); type: functional
# [11] = biological target: 26S proteasome non-ATPase regulatory subunit 14 (Homo sapiens, UniProt O00487); assay: inhibition of proteasome subunit RPN11 – biochemical, fluorescence polarization, uHTS hits, confirmation (AID 602368); type: functional
# 26S proteasome non-ATPase regulatory subunit 14, sequence (O00487 whole entry): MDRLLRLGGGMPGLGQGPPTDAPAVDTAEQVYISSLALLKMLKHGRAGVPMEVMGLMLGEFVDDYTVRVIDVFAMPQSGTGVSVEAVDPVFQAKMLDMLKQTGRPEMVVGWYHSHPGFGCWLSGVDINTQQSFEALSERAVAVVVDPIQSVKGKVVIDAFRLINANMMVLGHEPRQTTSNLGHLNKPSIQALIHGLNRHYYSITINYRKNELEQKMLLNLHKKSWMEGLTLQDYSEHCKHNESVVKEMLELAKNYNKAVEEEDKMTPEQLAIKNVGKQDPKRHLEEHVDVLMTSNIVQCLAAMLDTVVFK
# [12] = biological target: 72 kDa type IV collagenase (Homo sapiens, UniProt P08253); assay: Dose Response validation of uHTS RPN11 inhibitor hits using a MMP-2 Fluorescence assay.; type: functional
# Prothrombin = Prothrombin (Bos taurus, UniProt P00735); assay: thrombin protease inhibitors – biochemical, fluorescence polarization, uHTS hits, dose response (AID 602369); type: functional
# [13] = biological target: T6, Small ubiquitin-related modifier 1 (Homo sapiens, UniProt P63165); assay: SUMO1 protein interaction blockers, potency – biochemical, fluorescence polarization, uHTS hits, dose response (AID 624382); type: functional; conditions: read-out: IC50_Mean
# T6 sequence (P63165 whole entry): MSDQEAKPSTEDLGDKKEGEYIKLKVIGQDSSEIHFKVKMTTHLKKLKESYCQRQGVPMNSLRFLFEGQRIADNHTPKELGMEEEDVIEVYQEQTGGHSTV
# [14] = biological target: T6, Small ubiquitin-related modifier 1; assay: SUMO1 protein-protein binding blockers, potency – biochemical, FRET, dose response (AID 624383); type: functional; conditions: read-out: IC50_Mean
# Coagulation factor XII = Coagulation factor XII (Homo sapiens, UniProt P00748); type: functional;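 further: activated factor XIIa alpha cleaving a fluorogenic AMC peptide substrate; inhibitor potency from loss of enzyme activity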
# Coagulation factor XII, sequence (P00748 20-372 limits assumed): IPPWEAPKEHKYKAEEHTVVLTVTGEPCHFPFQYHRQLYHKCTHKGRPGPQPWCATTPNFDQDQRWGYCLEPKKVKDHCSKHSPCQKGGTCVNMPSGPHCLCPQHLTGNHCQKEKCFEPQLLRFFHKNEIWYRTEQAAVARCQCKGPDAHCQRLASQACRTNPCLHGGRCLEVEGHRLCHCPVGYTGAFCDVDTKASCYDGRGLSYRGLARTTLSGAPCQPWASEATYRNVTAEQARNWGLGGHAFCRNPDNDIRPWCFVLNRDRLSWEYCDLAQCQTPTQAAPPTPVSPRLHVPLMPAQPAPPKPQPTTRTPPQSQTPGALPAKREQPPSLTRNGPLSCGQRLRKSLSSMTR
# Coagulation factor XII, sequence (P00748 373-615 limits assumed): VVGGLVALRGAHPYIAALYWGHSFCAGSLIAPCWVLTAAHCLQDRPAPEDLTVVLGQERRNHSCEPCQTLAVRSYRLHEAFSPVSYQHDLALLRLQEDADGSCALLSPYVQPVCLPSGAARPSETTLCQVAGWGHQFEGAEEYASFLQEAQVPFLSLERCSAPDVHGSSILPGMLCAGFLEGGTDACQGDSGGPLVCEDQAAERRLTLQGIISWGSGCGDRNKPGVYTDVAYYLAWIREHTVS
# Hexokinase HKDC1 = Hexokinase HKDC1 (Homo sapiens, UniProt Q2TB90); assay: activation of HKDC1 glucose phosphorylation – biochemical, W721R variant, dose response (AID 504730); type: functional
# Hexokinase HKDC1, sequence (Q2TB90 whole entry): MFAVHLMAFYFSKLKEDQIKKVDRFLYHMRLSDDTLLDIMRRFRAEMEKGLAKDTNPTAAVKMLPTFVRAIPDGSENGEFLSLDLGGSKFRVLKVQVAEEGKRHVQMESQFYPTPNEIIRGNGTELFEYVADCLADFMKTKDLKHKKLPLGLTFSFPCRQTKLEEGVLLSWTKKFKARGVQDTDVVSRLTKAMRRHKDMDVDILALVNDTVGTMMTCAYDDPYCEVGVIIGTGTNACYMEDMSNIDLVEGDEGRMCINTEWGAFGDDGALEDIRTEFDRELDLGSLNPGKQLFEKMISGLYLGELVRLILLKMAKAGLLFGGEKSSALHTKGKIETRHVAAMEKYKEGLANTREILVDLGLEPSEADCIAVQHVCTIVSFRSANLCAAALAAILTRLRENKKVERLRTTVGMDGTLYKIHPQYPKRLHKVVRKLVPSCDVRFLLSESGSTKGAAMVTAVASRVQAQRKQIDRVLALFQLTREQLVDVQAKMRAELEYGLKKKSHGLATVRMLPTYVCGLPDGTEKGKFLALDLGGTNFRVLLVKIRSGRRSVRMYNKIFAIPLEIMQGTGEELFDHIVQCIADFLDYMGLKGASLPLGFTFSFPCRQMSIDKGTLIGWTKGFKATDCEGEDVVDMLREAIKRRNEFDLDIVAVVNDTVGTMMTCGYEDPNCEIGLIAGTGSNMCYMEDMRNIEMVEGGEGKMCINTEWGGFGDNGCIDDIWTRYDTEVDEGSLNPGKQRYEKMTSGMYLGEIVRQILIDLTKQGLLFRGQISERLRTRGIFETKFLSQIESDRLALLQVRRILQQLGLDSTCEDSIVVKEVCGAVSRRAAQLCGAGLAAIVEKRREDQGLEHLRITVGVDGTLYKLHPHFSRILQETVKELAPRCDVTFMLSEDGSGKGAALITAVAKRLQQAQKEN
# Hexokinase-1 = Hexokinase-1 (Homo sapiens, UniProt P19367); assay: HK1 enzyme activation by HKDC1 hits – biochemical, selectivity assay for HKDC1 activator project, dose response (AID 504762); type: functional
# [15] = biological target: T7, Runt-related transcription factor 1/Core-binding factor subunit beta (Homo sapiens, UniProt Q01196+Q13951); assay: Confirmation of compounds inhibiting the binding between the RUNX1 Runt domain and CBFb-SMMHC via a fluorescence resonance energy transfer (FRET) assay. [Related pubchem assays (depositor defined):AID1434, AID1438, AID1496, AID1550, AID1645]; type: protein assay
# T7 sequence (Q01196 whole entry, the tested form may be a part): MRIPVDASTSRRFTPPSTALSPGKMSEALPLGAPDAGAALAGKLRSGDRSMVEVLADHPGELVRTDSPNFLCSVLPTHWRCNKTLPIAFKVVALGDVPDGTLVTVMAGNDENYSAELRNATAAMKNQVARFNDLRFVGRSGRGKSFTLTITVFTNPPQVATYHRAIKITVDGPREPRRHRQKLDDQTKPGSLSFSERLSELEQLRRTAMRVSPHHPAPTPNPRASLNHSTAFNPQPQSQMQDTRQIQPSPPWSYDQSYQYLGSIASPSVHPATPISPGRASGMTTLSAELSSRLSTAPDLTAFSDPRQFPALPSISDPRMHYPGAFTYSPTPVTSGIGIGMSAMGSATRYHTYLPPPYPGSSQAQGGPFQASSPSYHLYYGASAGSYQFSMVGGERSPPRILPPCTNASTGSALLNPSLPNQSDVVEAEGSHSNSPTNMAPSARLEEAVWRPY
# T7 sequence (Q13951 whole entry, the tested form may be a part): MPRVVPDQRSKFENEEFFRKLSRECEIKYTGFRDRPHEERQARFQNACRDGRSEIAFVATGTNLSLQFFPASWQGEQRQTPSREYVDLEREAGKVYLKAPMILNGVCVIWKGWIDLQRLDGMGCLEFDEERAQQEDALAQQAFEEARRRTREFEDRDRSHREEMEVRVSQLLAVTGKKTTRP
# [16] = biological target: T7, Runt-related transcription factor 1/Core-binding factor subunit beta; assay: disruptors of Runt domain/CBFb-SMMHC interaction – biochemical, FRET, Cerulean-Runt, Venus-CBFb-SMMHC, uHTS, […] (AID 1434); type: protein assay
# [17] = biological target: T7, Runt-related transcription factor 1/Core-binding factor subunit beta; assay: Runt domain/CBFb-SMMHC interaction disruptors – biochemical, TR-FRET (AID 1438); type: protein assay
# [18] = biological target: T7, Runt-related transcription factor 1/Core-binding factor subunit beta; assay: Confirmation of compounds inhibiting the binding between the RUNX1 Runt domain and CBFb-SMMHC via a time resolved fluorescence resonance energy transfer (TR-FRET) assay. [Related pubchem assays (depositor defined):AID1434, AID1438, AID1496, AID1560, AID1645]; type: protein assay
# [19] = biological target: Dual specificity tyrosine-phosphorylation-regulated kinase 1A (Rattus norvegicus, UniProt Q63470); type: biochemical, Homo sapiens
# [20] = biological target: T8, Tyrosine-protein phosphatase non-receptor type 22 (Homo sapiens, UniProt Q9Y2R2); assay: SAR LYP1 Fluorescent Assay using pCAP substrate for In Vitro dose response studies - Set 2. [Related pubchem assays (depositor defined):AID1779, AID1784, AID2135, AID449727]; type: functional
# T8 sequence (Q9Y2R2 whole entry): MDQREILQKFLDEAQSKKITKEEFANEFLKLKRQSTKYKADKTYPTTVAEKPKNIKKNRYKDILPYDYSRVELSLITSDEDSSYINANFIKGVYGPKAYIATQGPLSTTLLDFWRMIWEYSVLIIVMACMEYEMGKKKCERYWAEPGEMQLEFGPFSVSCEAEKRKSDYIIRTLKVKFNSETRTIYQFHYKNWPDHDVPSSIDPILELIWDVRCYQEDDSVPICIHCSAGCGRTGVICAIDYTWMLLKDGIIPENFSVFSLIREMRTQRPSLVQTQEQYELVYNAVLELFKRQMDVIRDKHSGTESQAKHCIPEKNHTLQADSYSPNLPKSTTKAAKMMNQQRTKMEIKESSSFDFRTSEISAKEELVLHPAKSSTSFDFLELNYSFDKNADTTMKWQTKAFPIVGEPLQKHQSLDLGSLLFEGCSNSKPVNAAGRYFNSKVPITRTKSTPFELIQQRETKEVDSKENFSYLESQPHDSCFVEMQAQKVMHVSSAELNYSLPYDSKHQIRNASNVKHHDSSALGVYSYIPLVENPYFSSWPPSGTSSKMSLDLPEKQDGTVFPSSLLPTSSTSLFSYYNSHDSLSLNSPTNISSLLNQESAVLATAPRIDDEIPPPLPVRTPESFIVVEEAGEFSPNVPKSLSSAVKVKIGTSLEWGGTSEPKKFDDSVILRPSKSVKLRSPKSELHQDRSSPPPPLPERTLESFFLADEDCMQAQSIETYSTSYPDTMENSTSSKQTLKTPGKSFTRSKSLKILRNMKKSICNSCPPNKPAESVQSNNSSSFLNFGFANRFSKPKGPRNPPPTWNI
# [21] = biological target: Tyrosine-protein phosphatase non-receptor type 12 (Homo sapiens, UniProt Q05209); assay: SAR Selectivity Analysis of small molecule inhibitors of PEST using pCAP in a fluorescence assay. [Related pubchem assays (depositor defined):AID1779, AID1784, AID2135]; type: functional
# Tyrosine-protein phosphatase non-receptor type 12, sequence (Q05209 whole entry): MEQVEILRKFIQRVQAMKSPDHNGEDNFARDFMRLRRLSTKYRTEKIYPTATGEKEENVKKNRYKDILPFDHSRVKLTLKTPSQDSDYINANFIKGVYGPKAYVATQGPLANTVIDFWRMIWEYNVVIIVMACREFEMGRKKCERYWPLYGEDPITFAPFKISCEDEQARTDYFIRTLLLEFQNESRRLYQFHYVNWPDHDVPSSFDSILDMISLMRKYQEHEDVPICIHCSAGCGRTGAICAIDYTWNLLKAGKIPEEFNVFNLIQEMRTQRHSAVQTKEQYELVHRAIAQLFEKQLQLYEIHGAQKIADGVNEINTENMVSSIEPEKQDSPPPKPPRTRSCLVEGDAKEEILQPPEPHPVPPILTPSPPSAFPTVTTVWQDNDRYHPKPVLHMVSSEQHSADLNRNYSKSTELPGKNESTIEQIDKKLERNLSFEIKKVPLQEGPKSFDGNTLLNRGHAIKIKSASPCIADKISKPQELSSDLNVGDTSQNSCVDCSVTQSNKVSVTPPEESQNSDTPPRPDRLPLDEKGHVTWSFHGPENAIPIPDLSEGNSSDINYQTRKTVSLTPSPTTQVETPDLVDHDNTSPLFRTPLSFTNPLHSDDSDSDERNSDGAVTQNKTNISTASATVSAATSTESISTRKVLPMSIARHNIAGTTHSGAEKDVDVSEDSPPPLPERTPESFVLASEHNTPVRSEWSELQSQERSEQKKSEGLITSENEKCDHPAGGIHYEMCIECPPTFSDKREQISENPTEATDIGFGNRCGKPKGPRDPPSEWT
# [22] = biological target: T8, Tyrosine-protein phosphatase non-receptor type 22; assay: SAR LYP1 Fluorescent Assay using OMFP substrate for In Vitro dose response studies - Set 3. [Related pubchem assays (depositor defined):AID1779, AID1784, AID2140, AID2686]; type: functional
# [23] = biological target: T9, Tyrosine-protein phosphatase non-receptor type 7 (Homo sapiens, UniProt P35236); assay: inhibition of hematopoietic tyrosine phosphatase HePTP – biochemical, set 2, SAR follow-up (AID 449736); type: functional
# T9 sequence (P35236 whole entry): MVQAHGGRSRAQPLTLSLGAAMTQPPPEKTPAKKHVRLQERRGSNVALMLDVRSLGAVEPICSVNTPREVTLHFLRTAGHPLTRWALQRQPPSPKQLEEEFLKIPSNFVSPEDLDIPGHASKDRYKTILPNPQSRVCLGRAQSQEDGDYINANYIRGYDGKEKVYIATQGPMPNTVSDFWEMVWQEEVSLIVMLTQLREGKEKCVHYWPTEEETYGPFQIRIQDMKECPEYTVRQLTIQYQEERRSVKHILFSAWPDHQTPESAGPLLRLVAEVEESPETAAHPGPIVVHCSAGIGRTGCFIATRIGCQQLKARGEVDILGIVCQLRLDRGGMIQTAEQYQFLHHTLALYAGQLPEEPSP
# [24] = biological target: T8, Tyrosine-protein phosphatase non-receptor type 22; assay: inhibition of lymphoid tyrosine phosphatase LYP – biochemical, pCAP fluorogenic substrate, fluorescence, set 3, SAR follow-up (AID 449727); type: functional
# [25] = biological target: T8, Tyrosine-protein phosphatase non-receptor type 22; assay: SAR LYP1 Fluorescent Assay using OMFP substrate for In Vitro dose response studies - Set 2. [Related pubchem assays (depositor defined):AID1779, AID1784, AID2140, AID449726, AID488869]; type: functional
structure (smiles),measurement,setting,value
CCn1cnc2c1c(=O)n(Cc1cccc([N+](=O)[O-])c1)c(=O)n2Cc1ccccc1,IC50,[1],0.6 µM (active)
same,IC50,[2],0.173 µM (active)
same,EC50,[3],0.181 µM (active)
CCCCN=C(S)N=Nc1c(O)[nH]c2ccccc12,IC50,Bcl-2-related protein A1,> 20 µM (inactive)
same,IC50,[4],8.6 µM (active)
same,IC50,[5],5.96 µM (active)
O=C(Nc1ccc(Br)cc1)c1ccc(N2C(=O)C3CC=CCC3C2=O)cc1 (stereo unspecified),IC50,[6],> 20 µM (inactive)
COC(=O)c1c(NC(=O)COC(=O)c2ccc(NC(=O)CC#N)cc2)sc2c1CCCCC2,IC50,Genome polyprotein,> 49.8 µM (not active)
same,IC50,SUMO-activating enzyme [7],6.14 µM (active)
same,IC50,SUMO-activating enzyme [8],7.43 µM (active)
same,IC50,[9],1.84 µM (active)
same,IC50,[10],3.35 µM (active)
same,IC50,[11],13.8 µM (active)
same,IC50,[12],> 100 µM (inactive)
same,IC50,Prothrombin,85.9 µM (active)
same,IC50,[13],> 66.6 µM (inactive)
same,IC50,[14],6.24 µM (active)
Cc1ccc(S(=O)(=O)CCN2C=CC(C(F)(F)F)=NCC2)cc1,IC50,Coagulation factor XII,> 50 µM (inactive)
CCOC(=O)c1c(C)[nH]c(C2=NN=C(Nc3ccc(OCC)cc3)SC2)c1C,EC50,Hexokinase HKDC1,19.4 µM (active)
same,EC50,Hexokinase-1,21.1 µM (inactive)
Cc1ccc(/C=C(\C#N)C(=O)Nc2cccc3ncccc23)o1,IC50,[15],26.6 µM (active)
same,IC50,[16],23.6 µM (active)
same,IC50,[17],17.4 µM (active)
same,IC50,[18],> 25 µM (inactive)
same,AC50,[19],0.701 µM (active)
O=C(O)COc1ccc(NC(=O)COc2ccc(Cl)cc2)cc1,IC50,[20],> 100 µM (inactive)
same,IC50,[21],> 100 µM (inactive)
same,IC50,[22],> 100 µM (inactive)
same,IC50,[23],> 100 µM (inactive)
same,IC50,[24],> 100 µM (inactive)
same,IC50,[25],> 100 µM (inactive)
